Test system: Murine colon carcinoma CT26
Assay: Antitumour efficacy after intratumoral treatment of CT26 tumours
Assay type: in vivo, Balb/cJRj mice
Procedure: Healthy Balb/cJRj mice were injected with 100 μL of Murine colon carcinoma CT26 cancer cells (3×105) in RPMI media subcutaneously on the right flank. Mice bearing tumors with volumes between 50 and 200 mm^3 were randomized and rearranged into new cages by blocking for initial tumor volume, and each cage received one of the four treatments described in Table 2 administered intratumorally (50 μL). A total of 3 injections, separated by 7 days each, were made for each treatment.
83 days after the first tumor inoculation, the surviving mice were re-challenged by a second inoculation of CT26 cancers cells (same dose) on the left flank of the mice along with a control group getting their first inoculation. The mice were monitored for weight and their tumors were measured using an electronic caliper twice a week, and fluorescence imaging was performed at regular intervals for all formulations containing Cy7 moieties. […] Humane endpoints included general signs of misthriving mice, significant weight loss (15% of initial weight or 10% overnight weight loss), or presence of tumor wounds larger than 8 mm.

Q: What does the source list for `CCOCc1nc2c(N)nc3ccccc3c2n1CCCN` [TLR7/8a, 4-Amino-2-(ethoxymethyl)-1H-imidazo[4,5-c]quinoline-1-propanamine]?
A: antitumour activity / improvement versus control (intratumoral treatment): potential minor improvement in tumour treatment compared to the control; averaged slope coefficient for the tumour growth plots (tumour growth rate) (mouse, in vivo): positive; mice recovered from the tumour (six mice per group, 3 intratumoral injections 7 days apart): two out of six mice recovered

From patent US20260232815A1, “COPOLYMER-DRUG CONJUGATE FOR TREATMENT OF TUMOURS” (Danmarks Tekniske Universitet, priority 2023, published 2026)
